Assay results published in patent US8513440B2, “Compositions and methods comprising analogues of radicicol A” (Universite de Strasbourg, priority 2007, dated 2013).
“Also recorded” adds a separate entry of the source.

Experiments:
VEGF-R2 [1] = biological target: T1, VEGF-R2 (Homo sapiens, UniProt P35968); assay: radiometric protein kinase assay (33PanQinase Activity Assay); format: biochemical; parameters: made in house; host or cells: Sf9 insect cells (baculovirus); settings: for Inhibition of Kinases IC50 / IC50: panel of 24 kinases, 1 μM ATP; for IC50: read-out: Inhibition of Kinases IC50
Procedure: (§1) Radicicol A (1) and analogues 3 and 31 were tested for its inhibition in a panel of 24 kinase (AKT1, ARKS, Aurora-A, Aurora-B, B-RAF-VE, CDK2/CycA, CDK4/CycD1, CK2-α1, FAK, EPHB4, ERB2, EGF-R, IGF1-R, SRC, VEGF-R2, VEGF-R3, FLT3, INS-R, MET, PDGFR-β, PLK1, SAK, TIE2, COT) at 10 μM using the procedure described below.
(§2) All protein kinases were expressed in Sf9 insect cells as human recombinant GST-fusion proteins or His-tagged proteins by means of the baculovirus expression system. Kinases were purified by affinity chromatography using either GSH-agarose (Sigma) or Ni-NTH-agarose (Qiagen). The purity of each kinase was checked by SDS-PAGE/silver staining and the identity of each kinase was verified by western blot analysis with kinase specific antibodies or by mass spectroscopy.
(§3) A radiometric protein kinase assay (^33PanQinase® Activity Assay) was used for measuring the kinase activity of the 24 protein kinases. All kinase assays were performed in 96-well FIashPlates™ from Perkin Elmer (Boston, Mass., USA) in a 50 μl reaction volume. The reaction cocktail was pipetted in 4 steps in the following order: • 20 μl of assay buffer • 5 μl of ATP solution (in H2O) • 5 μl of test compound (in 10% DMSO) • 10 μl of substrate/10 μl of enzyme solution (premixed)
(§4) The assay for all enzymes contained 60 mM HEPES-NaOH, pH 7.5, 3 mM MgCl2, 3 mM MnCl2, 3 μM Na-orthovanadate, 1.2 mM DTT, 50 μg/ml PEG20000, 1 μM [γ-^33P]-ATP (approx. 5×10^05 cpm per well).
(§5) The reaction cocktails were incubated at 30° C. for 80 minutes. The reaction was stopped with 50 μl of 2% (v/v) H3PO4, plates were aspirated and washed two times with 200 μl of 0.9% (w/v) NaCl or 200 μl H2O. Incorporation of ^33Pi was determined with a microplate scintillation counter (Microbeta Trilux, Wallac). All assays were performed with a BeckmanCoulter/Sagian robotic system.
(§6) Using the same method described above, compound 31 was evaluated in a panel of 127 kinase enzymes.

FLT3 = biological target: T2, FLT3 (Homo sapiens, UniProt P36888); assay: as above; format: biochemical; settings: for Inhibition of Kinases IC50 / IC50: panel of 24 kinases, 1 μM ATP; for IC50: read-out: Inhibition of Kinases IC50
T2 construct: made in house; host or cells: Sf9 insect cells (baculovirus)
T2 sequence (P36888 27-993): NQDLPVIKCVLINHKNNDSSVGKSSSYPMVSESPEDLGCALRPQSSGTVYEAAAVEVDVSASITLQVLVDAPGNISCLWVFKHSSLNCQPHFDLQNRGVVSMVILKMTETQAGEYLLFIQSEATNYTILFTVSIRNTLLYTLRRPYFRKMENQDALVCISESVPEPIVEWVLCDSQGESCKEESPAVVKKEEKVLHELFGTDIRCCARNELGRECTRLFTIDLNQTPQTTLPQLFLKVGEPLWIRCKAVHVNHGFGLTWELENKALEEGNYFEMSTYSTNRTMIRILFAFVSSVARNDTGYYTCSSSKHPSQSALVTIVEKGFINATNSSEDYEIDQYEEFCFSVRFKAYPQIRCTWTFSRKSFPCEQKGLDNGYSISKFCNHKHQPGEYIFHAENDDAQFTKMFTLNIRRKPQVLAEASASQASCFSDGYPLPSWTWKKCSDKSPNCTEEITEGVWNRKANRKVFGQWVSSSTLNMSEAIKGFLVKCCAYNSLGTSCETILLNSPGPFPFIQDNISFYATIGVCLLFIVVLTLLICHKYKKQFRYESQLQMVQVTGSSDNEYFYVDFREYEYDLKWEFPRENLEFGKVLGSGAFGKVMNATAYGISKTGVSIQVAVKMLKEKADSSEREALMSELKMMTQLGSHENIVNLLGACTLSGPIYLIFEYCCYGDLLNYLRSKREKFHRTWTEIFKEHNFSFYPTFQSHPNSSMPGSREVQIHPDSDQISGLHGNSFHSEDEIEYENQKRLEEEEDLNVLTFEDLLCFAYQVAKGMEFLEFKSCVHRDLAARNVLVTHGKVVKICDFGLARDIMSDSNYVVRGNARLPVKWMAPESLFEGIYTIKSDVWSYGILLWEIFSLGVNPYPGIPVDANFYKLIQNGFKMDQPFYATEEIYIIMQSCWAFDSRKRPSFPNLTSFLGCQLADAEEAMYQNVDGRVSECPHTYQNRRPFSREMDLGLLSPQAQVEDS
Procedure: as §1, §2, §3, §4, §5, §6

VEGF-R3 = biological target: T3, VEGF-R3 (Homo sapiens, UniProt P35916); assay: as above; format: biochemical; settings: for Inhibition of Kinases IC50 / IC50: panel of 24 kinases, 1 μM ATP; for IC50: read-out: Inhibition of Kinases IC50
T3 construct: made in house; host or cells: Sf9 insect cells (baculovirus)
Procedure: as §1, §2, §3, §4, §5, §6

B-RAF-VE = biological target: T4, B-RAF-VE (Homo sapiens, UniProt P15056, V600E); assay: as above; format: biochemical; settings: panel of 24 kinases, 1 μM ATP, read-out: Inhibition of Kinases IC50
T4 construct: made in house; host or cells: Sf9 insect cells (baculovirus)
Procedure: as §1, §2
(§7) A radiometric protein kinase assay (^33PanQinase® Activity Assay) was used for measuring the kinase activity of the 24 protein kinases. All kinase assays were performed in 96-well FIashPlates™ from Perkin Elmer (Boston, Mass., USA) in a 50 μl reaction volume. […]
(§8) The reaction cocktails were incubated at 30° C. for 80 minutes. […] Incorporation of ^33Pi was determined with a microplate scintillation counter (Microbeta Trilux, Wallac). […]

SRC = biological target: T5, SRC (Homo sapiens, UniProt P12931); assay: as above; format: biochemical; settings: panel of 24 kinases, 1 μM ATP, read-out: Inhibition of Kinases IC50
T5 construct: made in house; host or cells: Sf9 insect cells (baculovirus)
Text: as §2, §3, §4, §8

PDGFR-beta = biological target: T6, PDGFR-beta (Homo sapiens, UniProt P09619); assay: as above; format: biochemical; settings: for Inhibition of Kinases IC50 / IC50: PDGFR-beta, panel of 24 kinases, 1 μM ATP; for IC50: read-out: Inhibition of Kinases IC50
T6 construct: made in house; host or cells: Sf9 insect cells (baculovirus)
Text: as §2, §3, §4, §5, §6

EPHB4 = biological target: T7, EPHB4 (Homo sapiens, UniProt P54760); assay: as above; format: biochemical; settings: panel of 24 kinases, 1 μM ATP, read-out: Inhibition of Kinases IC50
T7 construct: made in house; host or cells: Sf9 insect cells (baculovirus)
T7 sequence (P54760 16-987): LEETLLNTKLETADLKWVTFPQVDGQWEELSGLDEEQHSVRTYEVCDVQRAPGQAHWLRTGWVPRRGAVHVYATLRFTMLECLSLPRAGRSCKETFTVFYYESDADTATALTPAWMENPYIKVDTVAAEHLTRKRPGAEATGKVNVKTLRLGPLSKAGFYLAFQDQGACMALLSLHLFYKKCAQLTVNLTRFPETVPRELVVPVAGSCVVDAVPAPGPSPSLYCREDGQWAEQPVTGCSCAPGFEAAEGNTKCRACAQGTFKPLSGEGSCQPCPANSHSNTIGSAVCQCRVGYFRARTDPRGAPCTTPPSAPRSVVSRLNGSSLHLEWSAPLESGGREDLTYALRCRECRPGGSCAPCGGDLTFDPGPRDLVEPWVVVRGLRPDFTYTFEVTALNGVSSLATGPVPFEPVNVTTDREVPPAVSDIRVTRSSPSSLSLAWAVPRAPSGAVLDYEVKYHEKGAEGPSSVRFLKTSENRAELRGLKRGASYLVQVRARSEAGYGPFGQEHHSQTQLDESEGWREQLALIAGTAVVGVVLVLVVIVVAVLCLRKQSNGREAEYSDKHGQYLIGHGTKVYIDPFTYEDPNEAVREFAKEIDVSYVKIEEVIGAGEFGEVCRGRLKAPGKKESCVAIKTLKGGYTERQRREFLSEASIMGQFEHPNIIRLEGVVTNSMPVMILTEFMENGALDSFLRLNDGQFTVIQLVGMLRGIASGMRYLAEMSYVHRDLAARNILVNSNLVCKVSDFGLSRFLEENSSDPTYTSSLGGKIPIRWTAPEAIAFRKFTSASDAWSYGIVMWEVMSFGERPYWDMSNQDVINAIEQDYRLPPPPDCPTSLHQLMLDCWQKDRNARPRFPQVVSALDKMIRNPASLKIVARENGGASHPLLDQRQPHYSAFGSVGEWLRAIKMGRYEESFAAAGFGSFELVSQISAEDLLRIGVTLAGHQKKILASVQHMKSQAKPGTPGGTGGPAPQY
Procedure: as §1, §2, §7, §8

VEGF-R2 [2] = biological target: T1, VEGF-R2; assay: VEGF-R2 autophosphorylation in presence of VEGF165 in immortalized HUVECs (ELISA); format: cell-based; settings: 90 min incubation, then VEGF165 for 7 min, read-out: cellular IC50, VEGF-R2 autophosphorylation
Procedure: The potential efficacy of Compound 31 in vivo was assessed by measuring the level of VEGF-R2 autophosphorylation in the presence of its ligand (VEGF165). Thus immortalized HUVECs known to express high levels of VEGF-R2 were incubated with inhibitor 31 for 90 min. and then stimulated with VEGF165 for 7 min. The level of autophosphorylation was measured by ELISA using antiVEGF-R2 as capture antibody and anti-phosphotyrosine as detection antibody. Results are expressed as percentage of maximal autophosphorylation in the absence of inhibitor (FIGS. 1 and 2).
A number of RALs such as pochonins C and D are substituted with a chlorine atom at the 5 position rather than a methoxy, as with analogue 31. […] The potential efficacy of this compound in vivo was then assessed by measuring the level of VEGF-R2 autophosphorylation in the presence of its ligand (VEGF165). […] The level of autophosphorylation was measured by ELISA using antiVEGF-R2 as capture antibody and anti-phosphotyrosine as detection antibody. Results are expressed as percentage of maximal autophosphorylation in the absence of inhibitor (FIG. 3).
The potential efficacy of compound 31 in vivo was assessed by measuring the level of VEGF-R2 autophosphorylation in the presence of its ligand (VEGF165). […] The level of autophosphorylation was measured by ELISA using antiVEGF-R2 as capture antibody and anti-phosphotyrosine as detection antibody. […]

PDGFR-β = PDGFR-β (Homo sapiens, UniProt P09619); assay: PDGFR-β autophosphorylation; format: cell-based; settings: cellular autophosphorylation
MEK1 = biological target: T8, MEK1 (Homo sapiens, UniProt Q02750); assay: panel of 127 kinases, radiometric protein kinase assay; format: biochemical; settings: FIG. 1, result in words
T8 construct: made in house; host or cells: Sf9 insect cells (baculovirus)
Text: as §2, §3, §4, §8, §6

PDGFR-α = biological target: T9, PDGFR-α (Homo sapiens, UniProt P16234); assay: as above; format: biochemical; settings: FIG. 1, result in words
T9 construct: made in house; host or cells: Sf9 insect cells (baculovirus)
Text: as §2, §3, §4, §8, §6

TIE2 = TIE2 (Homo sapiens, UniProt Q02763); assay: autophosphorylation of TIE2; format: cell-based; settings: cellular autophosphorylation; result in words
[3] = panel of 127 kinases, FIG. 1, result in words

T6 sequence (P09619 33-1106): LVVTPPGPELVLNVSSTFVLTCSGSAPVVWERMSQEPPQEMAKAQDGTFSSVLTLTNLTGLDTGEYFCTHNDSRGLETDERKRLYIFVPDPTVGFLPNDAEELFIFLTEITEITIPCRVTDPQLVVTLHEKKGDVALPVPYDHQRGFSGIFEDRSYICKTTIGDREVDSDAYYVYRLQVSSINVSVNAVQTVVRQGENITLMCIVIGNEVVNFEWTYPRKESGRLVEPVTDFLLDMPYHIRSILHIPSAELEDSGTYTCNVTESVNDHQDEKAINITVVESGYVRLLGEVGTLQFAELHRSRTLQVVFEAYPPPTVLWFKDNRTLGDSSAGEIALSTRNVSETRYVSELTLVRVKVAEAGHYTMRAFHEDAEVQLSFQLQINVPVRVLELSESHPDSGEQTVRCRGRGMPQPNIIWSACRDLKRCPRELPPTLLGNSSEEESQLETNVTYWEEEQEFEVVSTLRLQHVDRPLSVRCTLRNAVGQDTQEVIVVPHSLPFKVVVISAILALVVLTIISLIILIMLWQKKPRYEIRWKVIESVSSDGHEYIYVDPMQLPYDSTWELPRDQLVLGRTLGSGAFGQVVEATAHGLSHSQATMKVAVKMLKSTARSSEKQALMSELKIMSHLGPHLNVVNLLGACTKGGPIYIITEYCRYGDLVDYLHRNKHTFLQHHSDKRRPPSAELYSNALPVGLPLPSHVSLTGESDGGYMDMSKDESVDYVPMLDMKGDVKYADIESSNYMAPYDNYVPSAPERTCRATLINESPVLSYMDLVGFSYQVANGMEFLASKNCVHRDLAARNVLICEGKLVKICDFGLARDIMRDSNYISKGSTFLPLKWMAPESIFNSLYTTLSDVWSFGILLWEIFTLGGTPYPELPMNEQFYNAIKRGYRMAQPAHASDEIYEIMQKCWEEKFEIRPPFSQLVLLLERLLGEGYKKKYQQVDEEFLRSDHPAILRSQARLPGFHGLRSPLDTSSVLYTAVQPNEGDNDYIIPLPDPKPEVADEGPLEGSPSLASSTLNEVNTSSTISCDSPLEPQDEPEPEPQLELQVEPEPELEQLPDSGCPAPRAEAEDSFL
T3 sequence (P35916 25-1363): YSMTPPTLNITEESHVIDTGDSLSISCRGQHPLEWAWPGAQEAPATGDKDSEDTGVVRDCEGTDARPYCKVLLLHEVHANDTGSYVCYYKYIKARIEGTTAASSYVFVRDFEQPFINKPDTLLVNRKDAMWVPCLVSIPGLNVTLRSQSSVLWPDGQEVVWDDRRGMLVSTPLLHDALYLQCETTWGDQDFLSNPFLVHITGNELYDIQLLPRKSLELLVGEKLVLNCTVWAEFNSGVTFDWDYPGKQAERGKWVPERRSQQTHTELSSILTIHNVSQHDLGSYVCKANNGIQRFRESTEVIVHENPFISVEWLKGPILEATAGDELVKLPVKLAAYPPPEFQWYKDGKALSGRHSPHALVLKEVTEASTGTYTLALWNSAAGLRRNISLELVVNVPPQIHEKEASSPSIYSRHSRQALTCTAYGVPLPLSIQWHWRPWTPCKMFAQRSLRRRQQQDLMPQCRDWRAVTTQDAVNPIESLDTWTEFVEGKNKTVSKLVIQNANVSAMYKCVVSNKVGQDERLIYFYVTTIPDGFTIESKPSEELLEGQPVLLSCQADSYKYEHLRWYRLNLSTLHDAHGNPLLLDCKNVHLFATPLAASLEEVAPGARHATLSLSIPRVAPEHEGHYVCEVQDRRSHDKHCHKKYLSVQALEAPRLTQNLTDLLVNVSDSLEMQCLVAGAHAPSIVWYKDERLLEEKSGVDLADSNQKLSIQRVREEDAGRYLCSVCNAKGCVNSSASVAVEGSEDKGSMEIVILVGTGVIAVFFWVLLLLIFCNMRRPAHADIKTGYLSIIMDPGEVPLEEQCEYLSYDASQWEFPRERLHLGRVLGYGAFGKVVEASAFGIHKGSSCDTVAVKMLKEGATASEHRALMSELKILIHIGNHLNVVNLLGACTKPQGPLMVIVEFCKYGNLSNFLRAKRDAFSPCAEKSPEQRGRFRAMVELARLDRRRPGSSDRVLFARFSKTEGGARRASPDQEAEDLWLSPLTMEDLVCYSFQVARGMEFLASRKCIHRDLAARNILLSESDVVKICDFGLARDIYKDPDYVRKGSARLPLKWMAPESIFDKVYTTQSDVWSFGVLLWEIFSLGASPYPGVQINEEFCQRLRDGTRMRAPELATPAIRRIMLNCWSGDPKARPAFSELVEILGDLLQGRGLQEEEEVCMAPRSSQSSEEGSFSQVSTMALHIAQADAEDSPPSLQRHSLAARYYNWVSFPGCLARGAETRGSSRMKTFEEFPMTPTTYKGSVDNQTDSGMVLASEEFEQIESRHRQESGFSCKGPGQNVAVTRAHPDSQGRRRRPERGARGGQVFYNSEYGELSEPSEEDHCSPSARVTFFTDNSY
T1 sequence (P35968 20-1356): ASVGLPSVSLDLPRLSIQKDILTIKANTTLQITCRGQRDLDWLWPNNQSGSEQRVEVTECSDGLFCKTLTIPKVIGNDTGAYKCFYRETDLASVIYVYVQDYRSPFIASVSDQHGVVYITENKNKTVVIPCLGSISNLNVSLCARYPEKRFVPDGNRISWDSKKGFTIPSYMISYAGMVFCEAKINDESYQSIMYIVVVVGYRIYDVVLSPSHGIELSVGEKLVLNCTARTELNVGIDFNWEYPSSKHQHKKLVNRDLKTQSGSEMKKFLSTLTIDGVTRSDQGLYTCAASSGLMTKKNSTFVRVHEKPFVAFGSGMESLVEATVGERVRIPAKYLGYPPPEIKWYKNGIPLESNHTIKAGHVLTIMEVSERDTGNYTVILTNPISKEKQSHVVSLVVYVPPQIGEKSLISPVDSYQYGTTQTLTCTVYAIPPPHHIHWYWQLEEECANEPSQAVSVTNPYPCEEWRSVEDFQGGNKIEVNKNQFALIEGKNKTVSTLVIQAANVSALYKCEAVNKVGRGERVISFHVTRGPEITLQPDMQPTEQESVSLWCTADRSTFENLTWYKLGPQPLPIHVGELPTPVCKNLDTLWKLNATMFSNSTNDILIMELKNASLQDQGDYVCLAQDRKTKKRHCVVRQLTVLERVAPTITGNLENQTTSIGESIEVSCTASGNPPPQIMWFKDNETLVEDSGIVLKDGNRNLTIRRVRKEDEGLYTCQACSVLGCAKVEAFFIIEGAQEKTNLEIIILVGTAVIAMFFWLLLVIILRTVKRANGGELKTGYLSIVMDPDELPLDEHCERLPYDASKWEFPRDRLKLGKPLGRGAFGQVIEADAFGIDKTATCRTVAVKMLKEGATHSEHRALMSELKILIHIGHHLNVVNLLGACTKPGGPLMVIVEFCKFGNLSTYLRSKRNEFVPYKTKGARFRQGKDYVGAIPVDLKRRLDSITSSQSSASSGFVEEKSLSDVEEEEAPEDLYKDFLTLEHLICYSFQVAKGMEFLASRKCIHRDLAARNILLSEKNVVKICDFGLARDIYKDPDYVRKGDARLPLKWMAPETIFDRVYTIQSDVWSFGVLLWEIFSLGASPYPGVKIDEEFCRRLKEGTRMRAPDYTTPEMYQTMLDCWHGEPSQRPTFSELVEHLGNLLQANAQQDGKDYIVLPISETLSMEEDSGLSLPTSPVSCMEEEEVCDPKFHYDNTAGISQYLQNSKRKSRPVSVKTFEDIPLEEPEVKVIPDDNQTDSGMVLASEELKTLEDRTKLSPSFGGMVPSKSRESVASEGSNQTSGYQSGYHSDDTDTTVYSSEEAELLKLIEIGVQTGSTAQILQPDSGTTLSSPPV
T8 sequence (Q02750 whole entry): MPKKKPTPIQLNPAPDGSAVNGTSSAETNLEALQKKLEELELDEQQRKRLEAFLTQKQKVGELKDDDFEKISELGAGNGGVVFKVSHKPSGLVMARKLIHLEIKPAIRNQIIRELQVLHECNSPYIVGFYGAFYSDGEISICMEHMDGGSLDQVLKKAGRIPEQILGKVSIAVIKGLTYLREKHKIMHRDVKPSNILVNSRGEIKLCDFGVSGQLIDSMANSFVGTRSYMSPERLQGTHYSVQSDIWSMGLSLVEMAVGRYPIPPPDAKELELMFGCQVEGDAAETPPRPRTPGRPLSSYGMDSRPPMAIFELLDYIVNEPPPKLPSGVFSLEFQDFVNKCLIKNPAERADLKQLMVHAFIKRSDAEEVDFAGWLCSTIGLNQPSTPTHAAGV
T5 sequence (P12931 whole entry): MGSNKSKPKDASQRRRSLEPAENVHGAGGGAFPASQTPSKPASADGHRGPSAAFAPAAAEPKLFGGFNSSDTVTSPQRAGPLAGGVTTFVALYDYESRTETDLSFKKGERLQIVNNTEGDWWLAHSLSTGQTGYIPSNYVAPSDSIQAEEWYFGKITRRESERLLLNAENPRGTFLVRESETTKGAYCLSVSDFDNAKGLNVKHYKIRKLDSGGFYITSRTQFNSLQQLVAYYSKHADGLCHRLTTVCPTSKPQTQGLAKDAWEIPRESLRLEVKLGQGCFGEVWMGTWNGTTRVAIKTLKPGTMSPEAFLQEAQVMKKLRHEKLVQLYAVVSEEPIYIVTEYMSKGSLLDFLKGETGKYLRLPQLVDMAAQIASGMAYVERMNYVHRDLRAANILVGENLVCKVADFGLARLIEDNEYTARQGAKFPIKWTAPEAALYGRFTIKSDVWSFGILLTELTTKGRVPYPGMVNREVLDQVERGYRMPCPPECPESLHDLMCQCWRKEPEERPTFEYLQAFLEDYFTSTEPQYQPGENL
Chain of PDGFR-β (P09619 33-1106, species assumed): as the sequence (P09619 33-1106) above

COc1cc(O)c2c(c1)/C=C/C[C@H](O)[C@H](O)C(=O)/C=C\C[C@H](C)OC2=O [Compound 3, 5-Z-7-oxozeaenol]
Inhibition of Kinases IC50 (VEGF-R2 [1]): potent inhibitory activity
IC50 (VEGF-R2 [1]): 0.052 µM
Inhibition of Kinases IC50 (FLT3): potent inhibitory activity
IC50 (FLT3): 0.17 µM
Inhibition of Kinases IC50 (VEGF-R3): potent inhibitory activity
IC50 (VEGF-R3): 0.11 µM
IC50 (B-RAF-VE): 6.3 µM

COc1cc(O)c2c(c1OC)/C=C/C[C@H](O)[C@H](O)C(=O)/C=C\C[C@H](C)OC2=O [Compound 1, Radicicol A]
IC50 (SRC): 9.6 µM
Inhibition of Kinases IC50 (VEGF-R2 [1]; listed as Radicicol A): potent inhibitory activity (low nM)
Inhibition of Kinases IC50 (VEGF-R2 [1]; listed as radicicol A): potent inhibitory activity
IC50 (VEGF-R2 [1]): 0.026 µM
Inhibition of Kinases IC50 (PDGFR-beta; listed as Radicicol A): potent inhibitory activity (low nM)
Inhibition of Kinases IC50 (PDGFR-beta; listed as radicicol A): potent inhibitory activity
IC50 (PDGFR-beta): 0.21 µM
Inhibition of Kinases IC50 (FLT3; listed as Radicicol A): potent inhibitory activity (low nM)
Inhibition of Kinases IC50 (FLT3; listed as radicicol A): potent inhibitory activity
IC50 (FLT3): 0.11 µM
Inhibition of Kinases IC50 (VEGF-R3; listed as Radicicol A): potent inhibitory activity (low nM)
Inhibition of Kinases IC50 (VEGF-R3; listed as radicicol A): potent inhibitory activity
IC50 (VEGF-R3): 0.066 µM
IC50 (EPHB4): 9.1 µM

COc1cc(O)c2c(c1Cl)/C=C/C[C@H](O)[C@H](O)C(=O)/C=C\C[C@H](C)OC2=O [Compound 31]
IC50 (VEGF-R2 [2]): 0.44 µM
IC50 (PDGFR-β): 13 µM
Inhibition of Kinases IC50 (VEGF-R2 [1]): potent inhibitory activity
IC50 (VEGF-R2 [1]): 0.09 µM
inhibitory activity (IC50) in a panel of 127 kinases (VEGF-R2 [1]; [3]): nanomolar concentrations; also recorded: nM concentrations
inhibitory activity (IC50) in a panel of 127 kinases (MEK1): nanomolar concentrations; also recorded: nM concentrations
inhibitory activity (IC50) in a panel of 127 kinases (PDGFR-α): nanomolar concentrations; also recorded: nM concentrations
Inhibition of Kinases IC50 (PDGFR-beta): potent inhibitory activity
IC50 (PDGFR-beta): 0.37 µM
inhibitory activity (IC50) in a panel of 127 kinases (PDGFR-beta; PDGFR-β, panel of 127 kinases, FIG. 1, result in words): nanomolar concentrations; also recorded: nM concentrations
Inhibition of Kinases IC50 (FLT3): potent inhibitory activity
IC50 (FLT3): 1.8 µM
inhibitory activity (IC50) in a panel of 127 kinases (FLT3; [3]): low micromolar concentrations; also recorded: low μM concentrations
Inhibition of Kinases IC50 (VEGF-R3): potent inhibitory activity
IC50 (VEGF-R3): 0.21 µM
inhibitory activity (IC50) in a panel of 127 kinases (VEGF-R3; [3]): nanomolar concentrations; also recorded: nM concentrations
autophosphorylation of TIE2 (TIE2): unaffected
